Laboratory results: US11541056B2, “3-hydroxy-N-(3-(7H-pyrrolo[2,3-d]pyrimidin-4-yl)phenyl)pyrrolidine-1-carboxamide derivatives” (NOVARTIS AG, priority 2018, dated 2023)

Columns and labels:
[1] = target: T1, BTK-GFP (Homo sapiens, UniProt Q06187+Q96SW2); assay: BTK-GFP protein abundance flow cytometry assay in HEK293A cells; type: cell-based; conditions: 24 h; for BTK deg Amax %: % protein remaining at concentration of maximum degradation; for DC50: concentration at which 50% maximal degradation was observed
T1 construct: the BTK open reading frame (ORF) was first shuttled from a pcDNA-DEST40-BTK vector (Invitrogen library ID INV_20090504v1); expressed in transfected cells; host or cells: HEK293A cells (Invitrogen R70507), lentiviral transduction with pLenti6-BTK-GFP-Ires-RFP, blasticidin-selected
Method: (§1) Compounds of the invention were tested in the following cellular assays. The terms in Table 1 are defined as follows: DC50 refers to the concentration at which 50% maximal degradation was observed; deg Amax is the extent of degradation and the value refers to the % protein remaining at the concentration at which maximum degradation is seen; Prol GI50 refers to the proliferation data and defines the concentration at which 50% growth inhibition was observed compared to the vehicle treated control at the end of the incubation time. TMD8 cells are BTK dependent and OCI-LY3 cells are BTK independent.
BTK-GFP and IKZF3-GFP Protein Abundance Flow Cytometry Assay in HEK293A Cells:
Degradation of BTK or IKZF3 was measured in HEK293A cells (Invitrogen R70507) expressing either BTK-GFP and RFP or IKZF3-GFP and RFP from a stably integrated bicistronic BTK-GFP-iresRFP or IKZF3-GFP-iresRFP construct, respectively. Reduction of the GFP signal measured by flow cytometry served as readout for BTK or IKZF3 degradation after degrader treatment.
Stable HEK293A-BTK-GFP-iresRFP cells were maintained in complete growth medium (DMEM high Glucose+10% FCS+1% L-Glutamine+1% NEAA+1% NaPyr.) with passaging performed twice per week. On Day 0, HEK293A-BTK-GFP-iresRFP or HEK293A-IKZF3-GFP-iresRFP and HEK293A-iresRFP cells were seeded at 10,000 cells/well in a 96-well microtiter plate in 260 μl complete medium. On Day 1, cells were treated in duplicate with 10-point 1:3 dilution series of compound using the HP D300 Digital Dispenser (Tecan). DMSO concentrations were normalized across the plate to 0.1%. On Day 2, after 24 h of incubation at 37° C., treatment media was discarded, cells rinsed with 100 ul/well PBS and then detached using 40 ul trypsin/well for 5 min. Trypsin was neutralized with 100 ul/well PBS+20% FCS). Flow cytometry was performed on the samples using the BD FACS CANTO II (Becton Dickinson). Cell identification was then performed using forward (FSC) vs. side scatter (SSC) plots. Single cell discrimination is performed using SSC-Width (SSC-W) vs. SSC-Height (SSC-H) plots. Median GFP values for 5,000 single cells are used to determine BTK levels. Median GFP values from HEK293A-iresRFP are used as a background signal and thus defining 0% BTK signal. Median GFP values from DMSO treated HEK293A-BTK-GFP-iresRFP or HEK293A-IKZF3-GFP-iresRFP are used to define 100% BTK signal for subsequent DC50 curves (concentration at 50% BTK degradation). GFP and RFP are read in the channels called FITC and PE, respectively.
Concentration response curves plotting relative reduction of the GFP signal (measured by flow cytometry) versus 10 compound concentrations (starting concentration 10 μM, 3 fold dilution steps) of the compounds allowed generation of DC50 values.

[2] = test system: OCI-LY3 cells; assay: Resazurin cell viability assay in DLBCL cells (OCI-LY3); type: cell-based; conditions: Homo sapiens, OCI-Ly3, 72 h, OCI-LY3 cells (BTK independent), 50% growth inhibition, read-out: OCI-LY3 Prol GI50
Method: as §1
Cell Viability Assay in DLBCL (Diffuse Large B-Cell Lymphoma) Cells:
The effect of the BTK compounds on cell proliferation was measured by a Resazurin (Sigma, #R7017) based cell viability assay. TMD8 (BTK compound sensitive) and OCI-LY3 (BTK compound insensitive) cells were incubated for 72 h at 37° C. and 5% CO2 with the corresponding compound. Resazurin is a non-toxic, cell-permeable substrate that is virtually non-fluorescent. Upon entering living cells, Resazurin (Sigma, #R7017) is reduced to highly fluorescent Resorufin. The metabolic activity was assessed by measuring the fluorescence signal (ex. 530 nm; em. 600 nm).
TMD8 and OCI-Ly3 cells were seeded at day 0 in triplicates at a cell density of 1×10^4 cells per 150 μl/well in a 96-well plate (Costar #3904). Additional plates were prepared, in order to assess the basal metabolic activity of both cell lines at the beginning of the experiment. For these reference plates, Resazurin (Sigma, #R7017) was added to a final concentration of 13 μg/ml 3 h post seeding and was incubated for 2 h at 37° C. and 5% CO2. Following incubation, the fluorescent signal intensity of the 96-well plates was measured on a Mithras LB940 multimode plate reader at 530/600 nm (Berthold Technologies, Germany).
In parallel, 3 h post-seeding, test-plates were treated with compound at various concentrations, or with vehicle (DMSO) alone for 3 days. The compound addition to the plates was performed by using a HP D300 digital dispenser (TECAN, Switzerland). The compounds were tested in triplicate, 8-point serial dilution (1:4), with a start concentration of 10 μM for OCI-LY3 and 1 μM for the TMD8 cells, respectively. To assess the relative proliferation of the cells, Resazurin was added to each well directly to the medium to a final concentration of 13 μg/ml. The plates were incubated for 2 h at 37° C. and 5% CO2 to result in a 72 h endpoint. Following incubation, the fluorescent signal intensity of the 96-well plates were measured on a Mithras LB940 multimode plate reader at 530/600 nm (Berthold Technologies, Germany). The formation of Resorufin dye directly correlates with the number of metabolically active cells. For each triplicate treatment the mean and standard deviation were calculated and analyzed via curve fitting software to determine the respective compound concentration resulting in 50% growth inhibition (GI50) values. For each compound GI50 values were typically determined from at least 2 entirely independent experiments.
OCI-LY3 cells were acquired through a license agreement with University Health Network, Toronto, Canada. Cells are cultivated in RPMI1640 media (Gibco, #61870-010, lot. 1894759), supplemented with 10% FCS (HyClone, GE #SH30066.03, lot AB217603), 2 mM L-Glutamine (BioConcept, #5-10K50-H, lot. LA03467P), 1 mM Sodium Pyruvate (BioConcept, #5-60F00-H, lot. LB10510P), 10 mM HEPES (Gibco, #15630-056, lot. 1854074), 1% Pen/Strep (BioConcept, #4-01F00-H, lot. LB04235P).

T1 sequence (Q06187 whole entry): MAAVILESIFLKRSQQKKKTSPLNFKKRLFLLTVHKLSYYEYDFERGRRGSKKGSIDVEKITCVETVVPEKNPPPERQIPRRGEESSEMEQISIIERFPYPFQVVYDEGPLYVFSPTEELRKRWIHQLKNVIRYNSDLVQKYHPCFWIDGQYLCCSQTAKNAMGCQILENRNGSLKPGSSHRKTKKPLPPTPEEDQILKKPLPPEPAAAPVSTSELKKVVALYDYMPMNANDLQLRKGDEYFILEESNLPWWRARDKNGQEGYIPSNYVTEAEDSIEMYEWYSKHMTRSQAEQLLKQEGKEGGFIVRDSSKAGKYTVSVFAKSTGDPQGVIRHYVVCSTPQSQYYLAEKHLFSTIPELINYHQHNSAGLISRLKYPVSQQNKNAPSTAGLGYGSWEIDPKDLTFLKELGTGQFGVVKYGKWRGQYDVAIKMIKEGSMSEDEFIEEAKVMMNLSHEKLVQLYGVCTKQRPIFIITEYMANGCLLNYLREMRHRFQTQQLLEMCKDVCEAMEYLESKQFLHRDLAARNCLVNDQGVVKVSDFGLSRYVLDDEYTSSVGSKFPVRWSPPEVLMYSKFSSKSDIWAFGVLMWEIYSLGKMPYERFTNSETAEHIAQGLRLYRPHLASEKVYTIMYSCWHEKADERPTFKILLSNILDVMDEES
T1 sequence (Q96SW2 whole entry): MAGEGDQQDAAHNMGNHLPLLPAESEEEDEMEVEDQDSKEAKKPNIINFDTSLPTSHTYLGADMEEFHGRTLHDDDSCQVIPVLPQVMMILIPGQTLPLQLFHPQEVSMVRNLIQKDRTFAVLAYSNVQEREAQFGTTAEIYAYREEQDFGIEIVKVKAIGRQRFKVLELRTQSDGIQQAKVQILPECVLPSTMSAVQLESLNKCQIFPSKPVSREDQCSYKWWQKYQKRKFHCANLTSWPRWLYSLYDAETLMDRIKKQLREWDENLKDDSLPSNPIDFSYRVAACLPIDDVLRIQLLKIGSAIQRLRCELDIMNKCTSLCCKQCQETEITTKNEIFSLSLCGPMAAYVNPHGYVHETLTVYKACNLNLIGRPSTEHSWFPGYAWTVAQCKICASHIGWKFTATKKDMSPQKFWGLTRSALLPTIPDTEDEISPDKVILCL
T1 sequence (Q16531 whole entry partner): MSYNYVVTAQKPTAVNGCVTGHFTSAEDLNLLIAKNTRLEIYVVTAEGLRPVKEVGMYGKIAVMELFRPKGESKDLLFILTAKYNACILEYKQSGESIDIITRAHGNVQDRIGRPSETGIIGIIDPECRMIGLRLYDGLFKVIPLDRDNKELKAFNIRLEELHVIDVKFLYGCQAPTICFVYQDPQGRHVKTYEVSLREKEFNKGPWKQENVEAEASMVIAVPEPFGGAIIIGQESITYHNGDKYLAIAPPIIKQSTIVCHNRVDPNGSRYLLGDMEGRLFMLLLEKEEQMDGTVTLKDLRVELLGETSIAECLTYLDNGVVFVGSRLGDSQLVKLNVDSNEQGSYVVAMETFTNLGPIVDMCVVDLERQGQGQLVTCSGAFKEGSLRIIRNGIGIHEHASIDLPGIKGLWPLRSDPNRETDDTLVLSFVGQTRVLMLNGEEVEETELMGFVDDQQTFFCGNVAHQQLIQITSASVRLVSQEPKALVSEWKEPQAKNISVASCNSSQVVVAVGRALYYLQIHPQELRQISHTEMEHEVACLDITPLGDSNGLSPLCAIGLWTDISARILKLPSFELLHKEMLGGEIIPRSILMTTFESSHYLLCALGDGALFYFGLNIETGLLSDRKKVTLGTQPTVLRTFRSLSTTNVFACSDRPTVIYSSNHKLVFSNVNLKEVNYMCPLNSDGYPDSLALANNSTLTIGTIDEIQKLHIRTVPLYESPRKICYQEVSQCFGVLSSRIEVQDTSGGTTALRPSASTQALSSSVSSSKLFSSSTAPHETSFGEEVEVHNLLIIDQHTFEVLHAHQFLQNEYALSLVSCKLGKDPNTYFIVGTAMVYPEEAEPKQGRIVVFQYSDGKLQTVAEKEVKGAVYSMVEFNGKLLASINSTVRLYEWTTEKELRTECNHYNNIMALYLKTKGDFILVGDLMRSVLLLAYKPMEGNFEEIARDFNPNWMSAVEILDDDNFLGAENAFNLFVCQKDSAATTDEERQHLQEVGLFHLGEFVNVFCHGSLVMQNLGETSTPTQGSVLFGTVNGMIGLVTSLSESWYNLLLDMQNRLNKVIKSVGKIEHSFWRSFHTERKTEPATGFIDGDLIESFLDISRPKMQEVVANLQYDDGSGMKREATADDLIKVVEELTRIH

BTK deg Amax % [1] [%]	DC50 [1] [nM]	GI50 [2] [nM]	SMILES
4	4.9	7460	COc1ccc(C(=O)N2CCC3(CCN(Cc4ccc(-c5cc6c(-c7cc(F)cc(NC(=O)N8C[C@@H](CC(C)C)[C@H](O)C8)c7C)ncnc6[nH]5)cc4)CC3)CC2)cc1N1CCC(=O)NC1=O (racemic) [Compound 5, trans-rac-N-(3-(6-(4-((9-(3-(2,4-Dioxotetrahydropyrimidin-1(2H)-yl)-4-methoxybenzoyl)-3,9-diazaspiro[5.5]undecan-3-yl)methyl)phenyl)-7H-pyrrolo[2,3-d]pyrimidin-4-yl)-5-fluoro-2-methylphenyl)-3-hydroxy-4-isobutylpyrrolidine-1-carboxamide]
15	164	7120	COc1ccc(C(=O)N2CCC3(CCN(Cc4ccc(-c5cc6c(-c7cc(F)cc(NC(=O)N8C[C@@H](CC(C)C)[C@H](O)C8)c7C)ncnc6[nH]5)cc4)CC3)CC2)cc1N1CCC(=O)NC1=O [Compound 1, (3S,4R)—N-(3-(6-(4-((9-(3-(2,4-Dioxotetrahydropyrimidin-1(2H)-yl)-4-methoxybenzoyl)-3,9-diazaspiro[5.5]undecan-3-yl)methyl)phenyl)-7H-pyrrolo[2,3-d]pyrimidin-4-yl)-5-fluoro-2-methylphenyl)-3-hydroxy-4-isobutylpyrrolidine-1-carboxamide]
2	1.4	7730	COc1ccc(C(=O)N2CCC(OCCN3CCN(Cc4ccc(-c5cc6c(-c7cc(F)cc(NC(=O)N8C[C@H](CC(C)C)[C@@H](O)C8)c7C)ncnc6[nH]5)cc4)CC3)CC2)cc1N1CCC(=O)NC1=O [Compound 2, (3R,4S)—N-(3-(6-(4-((4-(2-((1-(3-(2,4-Dioxotetrahydropyrimidin-1 (2H)-yl)-4-methoxybenzoyl)piperidin-4-yl)oxy)ethyl)piperazin-1-yl)methyl)phenyl)-7H-pyrrolo[2,3-d]pyrimidin-4-yl)-5-fluoro-2-methylphenyl)-3-hydroxy-4-isobutylpyrrolidine-1-carboxamide]
6.2	3.4	9920	COc1ccc(C(=O)N2CCC3(CCN(Cc4ccc(-c5cc6c(-c7cc(F)cc(NC(=O)N8C[C@H](CC(C)C)[C@@H](O)C8)c7C)ncnc6[nH]5)cc4)CC3)CC2)cc1N1CCC(=O)NC1=O [Compound 6, (3R,4S)—N-(3-(6-(4-((9-(3-(2,4-Dioxotetrahydropyrimidin-1(2H)-yl)-4-methoxybenzoyl)-3,9-diazaspiro[5.5]undecan-3-yl)methyl)phenyl)-7H-pyrrolo[2,3-d]pyrimidin-4-yl)-5-fluoro-2-methylphenyl)-3-hydroxy-4-isobutylpyrrolidine-1-carboxamide]
4.5	1	> 10000	COc1ccc(C(=O)N2CCC(OC3CCN(Cc4ccc(-c5cc6c(-c7cc(F)cc(NC(=O)N8C[C@H](CC(C)C)[C@@H](O)C8)c7C)ncnc6[nH]5)cc4)CC3)CC2)cc1N1CCC(=O)NC1=O [Compound 8, (3R,4S)—N-(3-(6-(4-((4-((1-(3-(2,4-Dioxotetrahydropyrimidin-1(2H)-yl)-4-methoxybenzoyl)piperidin-4-yl)oxy)piperidin-1-yl)methyl)phenyl)-7H-pyrrolo[2,3-d]pyrimidin-4-yl)-5-fluoro-2-methylphenyl)-3-hydroxy-4-isobutylpyrrolidine-1-carboxamide]
2.3	0.6	3510	COc1ccc(C(=O)N2CCC(CN3CCC(Oc4ccc(-c5cc6c(-c7cc(F)cc(NC(=O)N8C[C@H](CC(C)C)[C@@H](O)C8)c7C)ncnc6[nH]5)cc4)CC3)CC2)cc1N1CCC(=O)NC1=O [Compound 11, (3R,4S)—N-(3-(6-(4-((1-((1-(3-(2,4-Dioxotetrahydropyrimidin-1 (2H)-yl)-4-methoxybenzoyl)piperidin-4-yl)methyl)piperidin-4-yl)oxy)phenyl)-7H-pyrrolo[2,3-d]pyrimidin-4-yl)-5-fluoro-2-methylphenyl)-3-hydroxy-4-isobutylpyrrolidine-1-carboxamide]
4.3	0.7	> 10000	COc1ccc(C(=O)N2CCC(CN3CCN(Cc4ccc(-c5cc6c(-c7cc(F)cc(NC(=O)N8C[C@H](CC(C)C)[C@@H](O)C8)c7C)ncnc6[nH]5)cc4)CC3)CC2)cc1N1CCC(=O)NC1=O [Compound 12, (3R,4S)—N-(3-(6-(4-((4-((1-(3-(2,4-Dioxotetrahydropyrimidin-1(2H)-yl)-4-methoxybenzoyl)piperidin-4-yl)methyl)piperazin-1-yl)methyl)phenyl)-7H-pyrrolo[2,3-d]pyrimidin-4-yl)-5-fluoro-2-methylphenyl)-3-hydroxy-4-isobutylpyrrolidine-1-carboxamide]
2.9	0.5	9220	COc1ccc(C(=O)N2CCC(OC3CCN(CCc4ccc(-c5cc6c(-c7cc(F)cc(NC(=O)N8C[C@H](CC(C)C)[C@@H](O)C8)c7C)ncnc6[nH]5)cc4)CC3)CC2)cc1N1CCC(=O)NC1=O [Compound 13, (3R,4S)—N-(3-(6-(4-(2-(4-((1-(3-(2,4-Dioxotetrahydropyrimidin-1(2H)-yl)-4-methoxybenzoyl)piperidin-4-yl)oxy)piperidin-1-yl)ethyl)phenyl)-7H-pyrrolo[2,3-d]pyrimidin-4-yl)-5-fluoro-2-methylphenyl)-3-hydroxy-4-isobutylpyrrolidine-1-carboxamide]
